Experimental data: patent US8211901B2, “Naphthamide derivatives as multi-target protein kinase inhibitors and histone deacetylase inhibitors” (Shenzhen Chipscreen Biosciences Ltd., priority 2009, dated 2012)

Assays:
Type in all cases: in vivo, nu/nu mice
[1] = tested on: human SSMC7721 liver cancer xenograft; assay: Antitumor activity of compound 31, SSMC7721 xenograft (Example 53)
Description: The antitumor activity of compound 31 was measured in human SSMC7721 liver cancer xenograft model. The female nu/nu mice of 18˜20 g were fed by normal diet for 3 days. Then the cultured SSMC7721 human liver cancer cells were implanted into the armpit of 50 mice. […] One group was treated with vehicle. One group was treated with sutent, the positive control drug. […] Each group was dosed orally once a day for 30 days. Tumor volumes as established by caliper measurements were recorded twice per week, along with body weights. At the end of study, the mice were killed, and tumors were weighed. The tumor growth inhibition of each group was calculated using the formula {[(the average tumor weight of vehicle group)−(the average tumor weight of drug group)]/(the average tumor weight of vehicle group)}×100%.

[2] = Body weight in A549 xenograft study (Example 51)
Description: The antitumor activity of compound 31 was measured in human A549 lung cancer xenograft model. […] Then the cultured A549 human lung cancer cells were implanted into the armpit of 50 mice. When tumors had reached approximately 6 mm in diameter, the mice were divided into 6 groups randomly. Each group has 8 mice. One group was treated with vehicle. One group was treated with sutent, the positive control drug. […] Each group was dosed orally once a day for 24 days. Tumor volumes as established by caliper measurements were recorded twice per week, along with body weights. At the end of study, the mice were killed, and tumors were weighed. The tumor growth inhibition of each group was calculated using the formula {[(the average tumor weight of vehicle group)-(the average tumor weight of drug group)]/(the average tumor weight of vehicle group)}×100%.

[3] = Body weight in HCT-8 xenograft study (Example 52)
Description: The antitumor activity of compound 31 was measured in human HCT-8 colon cancer xenograft model. The female nu/nu mice of 18˜20 g were fed by normal diet for 3 days. Then the cultured HCT-8 human colon cancer cells were implanted into the armpit of 50 mice. When tumors had reached approximately 100 mm^3, the mice were divided into 6 groups randomly. Each group has 8 mice. One group was treated with vehicle. One group was treated with sutent, the positive control drug. […] Each group was dosed orally once a day for 20 days. Tumor volumes as established by caliper measurements were recorded twice per week, along with body weights. At the end of study, the mice were killed, and tumors were weighed. The tumor growth inhibition of each group was calculated using the formula {[(the average tumor weight of vehicle group)−(the average tumor weight of drug group)]/(the average tumor weight of vehicle group)}×100%.

[4] = Body weight in HCT-8 xenograft study (Example 54)
Description: (§1) The antitumor activity of compound 33 and compound 34 were measured in human HCT-8 colon cancer xenograft model. The female nu/nu mice of 18˜20 g were fed by normal diet for 3 days. Then the cultured HCT-8 human colon cancer cells were implanted into the armpit of 50 mice. When tumors had reached approximately 100 mm^3, the mice were divided into 6 groups randomly. Each group has 8 mice. One group was treated with vehicle. One group was treated with sutent, the positive control drug. Two groups were treated with compound 33. The other two groups were treated with compound 34. Each group was dosed orally once a day for 20 days. Tumor volumes as established by caliper measurements were recorded twice per week, along with body weights. At the end of study, the mice were killed, and tumors were weighed. The tumor growth inhibition of each group was calculated using the formula {[(the average tumor weight of vehicle group)−(the average tumor weight of drug group)]/(the average tumor weight of vehicle group)}×100%.

[5] = Body weight in HCT-8 xenograft study (Example 55)
Description: as §1, with “37” for “34”, “When tumors had reached approximately 100 mm^3, the mice were divided into 6 groups randomly. Each group has 8 mice.” left out, “37. Compound 33 was administered twice a day with an interval of 6 hours. Other drugs and vehicle were administered once a day.” for “34.”, “orally” for “orally once a day”

[6] = Body weight in SSMC7721 xenograft study (Example 56)
Description: The antitumor activity of compound 33 and compound 37 were measured in human SSMC7721 liver cancer xenograft model. The female nu/nu mice of 18˜20 g were fed by normal diet for 3 days. Then the cultured SSMC7721 human liver cancer cells were implanted into the armpit of 50 mice. […] Each group has 8 mice. One group was treated with vehicle. One group was treated with sutent, the positive control drug. Two groups were treated with compound 33. The other two groups were treated with compound 37. Each group was dosed orally once a day for 30 days. Tumor volumes as established by caliper measurements were recorded twice per week, along with body weights. At the end of study, the mice were killed, and tumors were weighed. The tumor growth inhibition of each group was calculated using the formula {[(the average tumor weight of vehicle group)−(the average tumor weight of drug group)]/(the average tumor weight of vehicle group)}×100%.

[7] = 2.5 mg/kg orally once a day for 30 days
[8] = 5 mg/kg orally once a day for 30 days
[9] = 10 mg/kg orally once a day for 30 days
[10] = 20 mg/kg orally once a day for 30 days
[11] = 5 mg/kg orally once a day for 24 days
[12] = 10 mg/kg orally once a day for 24 days
[13] = 20 mg/kg orally once a day for 24 days
[14] = 40 mg/kg orally once a day for 24 days
[15] = 2.5 mg/kg orally once a day for 20 days
[16] = 5 mg/kg orally once a day for 20 days
[17] = 10 mg/kg orally once a day for 20 days
[18] = 20 mg/kg orally once a day for 20 days
[19] = 30 mg/kg orally once a day for 20 days
[20] = 60 mg/kg orally once a day for 20 days
[21] = 30 × 2 mg/kg orally twice a day with an interval of 6 hours for 20 days
[22] = 60 × 2 mg/kg orally twice a day with an interval of 6 hours for 20 days
[23] = 30 mg/kg orally once a day for 30 days
[24] = 60 mg/kg orally once a day for 30 days

## COc1ccc2c(Oc3ccc4c(C(=O)Nc5ccccc5N)cccc4c3)ccnc2c1 [Example 31, N-(2-aminophenyl)-6-(7-methoxyquinolin-4-yloxy)-1-naphthamide]
[1]; [7]
  TGI (%) Tumor growth inhibition: 51.7%
  Tumor weight: 1.63 ± 0.70 g
[1]; [8]
  TGI (%) Tumor growth inhibition: 65.4%
  Tumor weight: 1.16 ± 0.55 g
[1]; [9]
  TGI (%) Tumor growth inhibition: 79.2%
  Tumor weight: 0.70 ± 0.45 g
[1]; [10]
  TGI (%) Tumor growth inhibition: 84.4%
  Tumor weight: 0.53 ± 0.28 g
[2]; [11]
  Body weight (g) end: 24.6 ± 1.3 g
  Body weight (g) start: 21.1 ± 0.6 g
[2]; [12]
  Body weight (g) end: 25.1 ± 1.3 g
  Body weight (g) start: 19.9 ± 1.3 g
[2]; [13]
  Body weight (g) end: 24.2 ± 0.7 g
  Body weight (g) start: 20.6 ± 1.1 g
[2]; [14]
  Body weight (g) end: 22.6 ± 2.4 g
  Body weight (g) start: 20.0 ± 0.9 g
[3]; [15]
  Body weight (g) end: 24.5 ± 1.1 g
  Body weight (g) start: 20.3 ± 0.8 g
[3]; [16]
  Body weight (g) end: 24.8 ± 1.5 g
  Body weight (g) start: 21.6 ± 1.4 g
[3]; [17]
  Body weight (g) end: 23.7 ± 0.8 g
  Body weight (g) start: 20.7 ± 1.1 g
[3]; [18]
  Body weight (g) end: 22.5 ± 1.6 g
  Body weight (g) start: 20.5 ± 1.3 g

## COc1ccc2c(Oc3ccc4c(C(=O)NCc5ccc(C(=O)Nc6ccccc6N)cc5)cccc4c3)ccnc2c1 [Example 33, N-(4-((2-aminophenyl)carbamoyl)benzyl)-6-(7-methoxyquinolin-4-yloxy)-1-naphthamide]
[4]; [19]
  Body weight (g) end: 21.1 ± 2.2 g
  Body weight (g) start: 19.0 ± 1.3 g
[4]; [20]
  Body weight (g) end: 21.4 ± 1.5 g
  Body weight (g) start: 19.4 ± 0.8 g
[5]; [21]
  Body weight (g) end: 22.6 ± 1.6 g
  Body weight (g) start: 21.1 ± 1.2 g
[5]; [22]
  Body weight (g) end: 19.0 ± 1.8 g
  Body weight (g) start: 20.1 ± 0.9 g
[6]; [23]
  Body weight (g) end: 24.0 ± 1.7 g
  Body weight (g) start: 20.8 ± 0.5 g
[6]; [24]
  Body weight (g) end: 25.4 ± 2.8 g
  Body weight (g) start: 21.4 ± 1.3 g
